# Laboratory results published in paper PMC6704710, “Preclinical evaluation of 3D185, a novel potent inhibitor of FGFR1/2/3 and CSF-1R, in FGFR-dependent and macrophage-dominant cancer models” (Journal of Experimental & Clinical Cancer Research : CR, 2019).
# What was measured:
# Experiment in all cases: Eurofins kinase panel
# Format in all cases: biochemical
# Details in all cases: read-out: Inhibition rate (%)
# HIPK3(h) = biological target: T1, HIPK3(h) (Homo sapiens, UniProt Q9H422)
# T1 construct: purchased Eurofins (KinaseProfiler)
# PTK5(h) = biological target: T2, PTK5(h) (Homo sapiens, UniProt P42685)
# T2 construct: purchased Eurofins (KinaseProfiler)
# TrkB(h) = biological target: T3, TrkB(h) (Homo sapiens, UniProt Q16620)
# T3 construct: purchased Eurofins (KinaseProfiler)
# IGF-1R(h), activated = biological target: T4, IGF-1R(h), activated (Homo sapiens, UniProt P08069)
# T4 construct: purchased Eurofins (KinaseProfiler)
# [1] = biological target: T5, PI3 Kinase (p110α(H1047R)/p85α)(h) (Homo sapiens, UniProt P42336, H1047R)
# T5 construct: purchased Eurofins (KinaseProfiler)
# EGFR(h) = biological target: T6, EGFR(h) (Homo sapiens, UniProt P00533)
# T6 construct: purchased Eurofins (KinaseProfiler)
# MAPKAP-K3(h) = biological target: T7, MAPKAP-K3(h) (Homo sapiens, UniProt Q16644)
# T7 construct: purchased Eurofins (KinaseProfiler)
# CLIK1(h) = biological target: T8, CLIK1(h) (Homo sapiens, UniProt Q8TDR2)
# T8 construct: purchased Eurofins (KinaseProfiler)
# MEK2(h) = biological target: T9, MEK2(h) (Homo sapiens, UniProt P36507)
# T9 construct: purchased Eurofins (KinaseProfiler)
# eEF-2K(h) = biological target: T10, eEF-2K(h) (Homo sapiens, UniProt O00418)
# T10 construct: purchased Eurofins (KinaseProfiler)
# T10 sequence (O00418 1-725): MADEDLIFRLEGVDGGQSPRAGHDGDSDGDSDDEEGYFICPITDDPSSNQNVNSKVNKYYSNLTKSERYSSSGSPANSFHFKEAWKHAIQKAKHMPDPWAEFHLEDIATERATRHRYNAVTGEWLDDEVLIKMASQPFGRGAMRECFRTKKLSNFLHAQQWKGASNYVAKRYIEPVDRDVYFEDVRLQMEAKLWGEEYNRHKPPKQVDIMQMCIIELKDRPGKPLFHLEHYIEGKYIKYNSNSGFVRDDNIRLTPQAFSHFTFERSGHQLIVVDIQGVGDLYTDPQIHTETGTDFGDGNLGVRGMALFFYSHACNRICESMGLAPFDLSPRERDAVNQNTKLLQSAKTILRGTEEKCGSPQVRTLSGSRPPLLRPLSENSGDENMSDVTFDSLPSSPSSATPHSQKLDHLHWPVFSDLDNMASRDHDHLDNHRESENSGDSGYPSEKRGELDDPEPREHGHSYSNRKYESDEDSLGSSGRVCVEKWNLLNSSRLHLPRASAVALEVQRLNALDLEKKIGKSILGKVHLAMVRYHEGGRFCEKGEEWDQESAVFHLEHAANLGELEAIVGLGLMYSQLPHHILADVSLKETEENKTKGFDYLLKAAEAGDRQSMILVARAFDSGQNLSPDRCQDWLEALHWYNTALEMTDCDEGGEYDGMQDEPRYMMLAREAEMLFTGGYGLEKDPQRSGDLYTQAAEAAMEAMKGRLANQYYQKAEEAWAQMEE
# KDR(h) = biological target: T11, KDR(h) (Homo sapiens, UniProt P35968)
# T11 construct: purchased Eurofins (KinaseProfiler)
# Fes(h) = biological target: T12, Fes(h) (Homo sapiens, UniProt P07332)
# T12 construct: purchased Eurofins (KinaseProfiler)
# PrKX(h) = biological target: T13, PrKX(h) (Homo sapiens, UniProt P51817)
# T13 construct: purchased Eurofins (KinaseProfiler)
# T13 sequence (P51817 1-358): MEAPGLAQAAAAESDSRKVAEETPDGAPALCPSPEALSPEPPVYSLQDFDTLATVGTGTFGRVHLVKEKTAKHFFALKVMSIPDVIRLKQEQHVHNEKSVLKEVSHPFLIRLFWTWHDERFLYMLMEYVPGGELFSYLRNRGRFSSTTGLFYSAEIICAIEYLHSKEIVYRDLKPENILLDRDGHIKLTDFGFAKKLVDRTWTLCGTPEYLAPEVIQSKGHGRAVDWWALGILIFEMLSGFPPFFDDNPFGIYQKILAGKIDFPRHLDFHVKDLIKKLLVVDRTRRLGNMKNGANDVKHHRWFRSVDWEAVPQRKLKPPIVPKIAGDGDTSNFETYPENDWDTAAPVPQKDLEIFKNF
# MAPK2(h) = biological target: T14, MAPK2(h) (Homo sapiens, UniProt P28482)
# T14 construct: purchased Eurofins (KinaseProfiler)
# ZAK(h) = biological target: T15, ZAK(h) (Homo sapiens, UniProt Q9NYL2)
# T15 construct: purchased Eurofins (KinaseProfiler)
# Rsk4(h) = biological target: T16, Rsk4(h) (Homo sapiens, UniProt Q9UK32)
# T16 construct: purchased Eurofins (KinaseProfiler)
# Pyk2(h) = biological target: T17, Pyk2(h) (Homo sapiens, UniProt Q14289)
# T17 construct: purchased Eurofins (KinaseProfiler)
# T17 sequence (Q14289 whole entry): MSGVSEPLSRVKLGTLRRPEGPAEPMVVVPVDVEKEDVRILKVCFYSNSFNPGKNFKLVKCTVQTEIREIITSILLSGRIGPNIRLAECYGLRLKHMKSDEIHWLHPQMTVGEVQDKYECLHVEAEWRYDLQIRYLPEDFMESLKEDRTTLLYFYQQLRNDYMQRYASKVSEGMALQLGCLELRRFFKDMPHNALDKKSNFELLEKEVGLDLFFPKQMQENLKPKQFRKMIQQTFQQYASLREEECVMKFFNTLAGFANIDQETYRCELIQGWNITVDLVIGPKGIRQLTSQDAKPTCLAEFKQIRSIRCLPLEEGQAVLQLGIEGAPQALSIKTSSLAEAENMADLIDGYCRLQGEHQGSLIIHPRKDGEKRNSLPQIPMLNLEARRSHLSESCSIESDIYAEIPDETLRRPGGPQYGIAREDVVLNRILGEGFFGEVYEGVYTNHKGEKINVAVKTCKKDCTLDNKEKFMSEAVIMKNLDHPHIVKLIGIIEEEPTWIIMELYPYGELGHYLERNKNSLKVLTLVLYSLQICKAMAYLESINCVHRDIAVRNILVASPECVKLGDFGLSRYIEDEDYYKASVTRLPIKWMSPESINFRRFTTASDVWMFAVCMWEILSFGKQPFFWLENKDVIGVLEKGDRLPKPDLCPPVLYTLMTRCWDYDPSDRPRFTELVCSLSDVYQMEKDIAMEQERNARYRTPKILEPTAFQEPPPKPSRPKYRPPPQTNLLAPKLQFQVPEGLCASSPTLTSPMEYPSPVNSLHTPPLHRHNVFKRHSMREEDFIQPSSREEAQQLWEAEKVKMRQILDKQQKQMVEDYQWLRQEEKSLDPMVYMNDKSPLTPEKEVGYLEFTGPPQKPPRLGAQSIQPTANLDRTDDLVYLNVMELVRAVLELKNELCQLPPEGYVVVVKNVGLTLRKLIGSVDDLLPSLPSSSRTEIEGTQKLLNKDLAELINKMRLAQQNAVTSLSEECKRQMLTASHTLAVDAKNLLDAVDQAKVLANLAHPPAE
# T3 sequence (Q16620 32-822): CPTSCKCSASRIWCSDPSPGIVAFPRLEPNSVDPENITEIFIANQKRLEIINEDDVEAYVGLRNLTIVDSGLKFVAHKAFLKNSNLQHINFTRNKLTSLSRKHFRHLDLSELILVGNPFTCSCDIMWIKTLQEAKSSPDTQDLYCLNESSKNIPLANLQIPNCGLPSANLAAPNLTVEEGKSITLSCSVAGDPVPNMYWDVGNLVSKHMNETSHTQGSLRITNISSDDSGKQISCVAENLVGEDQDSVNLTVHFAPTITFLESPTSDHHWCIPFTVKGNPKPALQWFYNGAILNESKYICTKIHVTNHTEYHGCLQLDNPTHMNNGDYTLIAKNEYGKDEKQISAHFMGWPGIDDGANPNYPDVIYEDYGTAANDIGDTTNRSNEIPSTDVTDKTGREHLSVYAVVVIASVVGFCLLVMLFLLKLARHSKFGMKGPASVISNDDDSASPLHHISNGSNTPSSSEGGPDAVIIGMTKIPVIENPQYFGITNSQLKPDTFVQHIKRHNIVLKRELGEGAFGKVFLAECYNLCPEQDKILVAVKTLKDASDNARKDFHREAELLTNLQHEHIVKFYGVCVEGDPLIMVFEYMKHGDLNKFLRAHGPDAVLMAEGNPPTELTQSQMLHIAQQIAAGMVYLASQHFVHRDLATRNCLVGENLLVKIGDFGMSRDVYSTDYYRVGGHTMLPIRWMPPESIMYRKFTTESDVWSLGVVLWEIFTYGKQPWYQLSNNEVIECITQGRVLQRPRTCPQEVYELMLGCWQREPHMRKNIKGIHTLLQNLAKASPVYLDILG
# T9 sequence (P36507 whole entry): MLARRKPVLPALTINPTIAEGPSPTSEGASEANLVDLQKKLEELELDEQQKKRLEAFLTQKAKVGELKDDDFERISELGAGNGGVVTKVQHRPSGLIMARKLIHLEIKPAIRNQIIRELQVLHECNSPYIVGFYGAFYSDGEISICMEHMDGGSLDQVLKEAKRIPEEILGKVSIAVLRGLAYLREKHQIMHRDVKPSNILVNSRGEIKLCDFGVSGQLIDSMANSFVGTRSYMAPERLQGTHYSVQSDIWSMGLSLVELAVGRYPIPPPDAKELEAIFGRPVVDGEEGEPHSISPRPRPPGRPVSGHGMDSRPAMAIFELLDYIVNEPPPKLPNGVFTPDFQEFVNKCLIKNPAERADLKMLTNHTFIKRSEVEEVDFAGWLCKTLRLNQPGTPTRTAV
# T15 sequence (Q9NYL2 whole entry): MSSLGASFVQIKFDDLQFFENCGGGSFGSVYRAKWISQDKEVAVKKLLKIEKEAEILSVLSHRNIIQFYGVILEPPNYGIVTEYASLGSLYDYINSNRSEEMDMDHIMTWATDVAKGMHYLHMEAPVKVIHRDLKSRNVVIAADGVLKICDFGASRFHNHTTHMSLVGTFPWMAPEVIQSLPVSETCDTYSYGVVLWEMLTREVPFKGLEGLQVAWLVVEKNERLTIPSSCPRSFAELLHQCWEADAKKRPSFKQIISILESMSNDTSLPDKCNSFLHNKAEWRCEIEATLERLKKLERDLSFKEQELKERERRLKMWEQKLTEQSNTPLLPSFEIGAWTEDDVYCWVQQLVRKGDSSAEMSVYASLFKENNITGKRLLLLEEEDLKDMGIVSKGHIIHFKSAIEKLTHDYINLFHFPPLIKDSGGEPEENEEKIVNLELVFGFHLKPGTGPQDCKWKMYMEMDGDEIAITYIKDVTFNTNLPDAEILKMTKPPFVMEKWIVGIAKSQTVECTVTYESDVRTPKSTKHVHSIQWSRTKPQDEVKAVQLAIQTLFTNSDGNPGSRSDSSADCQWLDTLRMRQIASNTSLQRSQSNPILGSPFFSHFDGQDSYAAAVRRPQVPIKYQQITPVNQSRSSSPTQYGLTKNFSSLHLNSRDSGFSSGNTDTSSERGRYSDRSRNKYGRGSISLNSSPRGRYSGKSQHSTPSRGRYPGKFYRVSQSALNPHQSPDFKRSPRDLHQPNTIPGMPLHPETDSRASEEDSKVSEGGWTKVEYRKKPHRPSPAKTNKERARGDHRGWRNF
# T8 sequence (Q8TDR2 whole entry): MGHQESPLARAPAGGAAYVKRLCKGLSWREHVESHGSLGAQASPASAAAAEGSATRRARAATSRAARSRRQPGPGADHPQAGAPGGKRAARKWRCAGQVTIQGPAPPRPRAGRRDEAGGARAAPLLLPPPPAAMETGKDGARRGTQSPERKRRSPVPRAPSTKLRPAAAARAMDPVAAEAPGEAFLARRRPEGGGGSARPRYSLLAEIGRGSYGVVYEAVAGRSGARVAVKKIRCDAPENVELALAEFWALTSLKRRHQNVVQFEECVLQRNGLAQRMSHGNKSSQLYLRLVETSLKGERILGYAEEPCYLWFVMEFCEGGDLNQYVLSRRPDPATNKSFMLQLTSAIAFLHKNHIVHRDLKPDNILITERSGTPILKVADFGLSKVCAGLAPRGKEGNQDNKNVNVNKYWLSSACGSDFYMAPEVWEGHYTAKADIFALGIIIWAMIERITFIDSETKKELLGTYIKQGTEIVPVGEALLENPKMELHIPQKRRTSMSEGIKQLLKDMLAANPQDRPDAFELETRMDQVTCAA
# T6 sequence (P00533 25-1210): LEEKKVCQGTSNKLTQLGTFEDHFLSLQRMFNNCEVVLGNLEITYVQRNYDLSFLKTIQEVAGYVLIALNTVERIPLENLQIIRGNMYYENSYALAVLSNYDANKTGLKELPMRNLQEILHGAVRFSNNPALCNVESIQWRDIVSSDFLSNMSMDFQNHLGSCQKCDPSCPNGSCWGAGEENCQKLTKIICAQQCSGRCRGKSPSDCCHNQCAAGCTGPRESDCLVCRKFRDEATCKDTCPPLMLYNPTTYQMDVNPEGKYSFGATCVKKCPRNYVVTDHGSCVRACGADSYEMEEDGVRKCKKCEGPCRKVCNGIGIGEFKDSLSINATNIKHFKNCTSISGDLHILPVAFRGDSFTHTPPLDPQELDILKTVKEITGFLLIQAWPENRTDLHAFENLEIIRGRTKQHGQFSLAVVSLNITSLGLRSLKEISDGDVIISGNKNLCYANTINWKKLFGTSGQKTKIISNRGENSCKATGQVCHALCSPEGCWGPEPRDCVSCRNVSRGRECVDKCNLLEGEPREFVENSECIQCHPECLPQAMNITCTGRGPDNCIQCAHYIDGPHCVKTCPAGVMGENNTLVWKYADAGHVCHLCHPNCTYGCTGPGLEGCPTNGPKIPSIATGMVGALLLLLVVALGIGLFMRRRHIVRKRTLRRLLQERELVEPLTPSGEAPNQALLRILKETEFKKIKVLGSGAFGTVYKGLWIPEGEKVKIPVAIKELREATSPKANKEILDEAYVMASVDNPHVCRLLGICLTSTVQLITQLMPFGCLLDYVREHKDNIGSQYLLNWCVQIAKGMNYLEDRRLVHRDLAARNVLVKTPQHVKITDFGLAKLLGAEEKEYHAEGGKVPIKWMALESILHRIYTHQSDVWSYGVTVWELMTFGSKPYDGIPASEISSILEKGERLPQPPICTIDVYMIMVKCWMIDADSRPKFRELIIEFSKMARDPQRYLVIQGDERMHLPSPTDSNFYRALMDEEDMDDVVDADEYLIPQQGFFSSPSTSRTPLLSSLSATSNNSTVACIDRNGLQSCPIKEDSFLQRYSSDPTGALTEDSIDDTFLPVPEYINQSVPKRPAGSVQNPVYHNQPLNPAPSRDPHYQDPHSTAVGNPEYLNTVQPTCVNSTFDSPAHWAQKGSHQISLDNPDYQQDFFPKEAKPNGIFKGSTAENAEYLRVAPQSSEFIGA
compound,measurement,setting,value
COc1cc(OC)c(Cl)c(-c2ccc3c(NC(=O)c4ccc(N5CCNC(C)(C)C5)cc4)n[nH]c3n2)c1Cl [3D185],inhibition at 0.01 µM,HIPK3(h); 10 nM,-2%
same,inhibition at 0.1 µM,HIPK3(h); 100 nM,-12%
same,inhibition at 1 µM,HIPK3(h); 1000 nM,-8%
same,inhibition at 0.01 µM,PTK5(h); 10 nM,19%
same,inhibition at 0.1 µM,PTK5(h); 100 nM,64%
same,inhibition at 1 µM,PTK5(h); 1000 nM,91%
same,inhibition at 0.01 µM,TrkB(h); 10 nM,31%
same,inhibition at 0.1 µM,TrkB(h); 100 nM,87%
same,inhibition at 1 µM,TrkB(h); 1000 nM,97%
same,inhibition at 0.01 µM,"IGF-1R(h), activated; 10 nM",-12%
same,inhibition at 0.1 µM,"IGF-1R(h), activated; 100 nM",6%
same,inhibition at 1 µM,"IGF-1R(h), activated; 1000 nM",49%
same,inhibition at 0.01 µM,[1]; 10 nM,1%
same,inhibition at 0.1 µM,[1]; 100 nM,3%
same,inhibition at 1 µM,[1]; 1000 nM,-5%
same,inhibition at 0.01 µM,EGFR(h); 10 nM,-12%
same,inhibition at 0.1 µM,EGFR(h); 100 nM,-16%
same,inhibition at 1 µM,EGFR(h); 1000 nM,0%
same,inhibition at 0.01 µM,MAPKAP-K3(h); 10 nM,8%
same,inhibition at 0.1 µM,MAPKAP-K3(h); 100 nM,17%
same,inhibition at 1 µM,MAPKAP-K3(h); 1000 nM,19%
same,inhibition at 0.01 µM,CLIK1(h); 10 nM,0%
same,inhibition at 0.1 µM,CLIK1(h); 100 nM,-1%
same,inhibition at 1 µM,CLIK1(h); 1000 nM,12%
same,inhibition at 0.01 µM,MEK2(h); 10 nM,-18%
same,inhibition at 0.1 µM,MEK2(h); 100 nM,-19%
same,inhibition at 1 µM,MEK2(h); 1000 nM,8%
same,inhibition at 0.01 µM,eEF-2K(h); 10 nM,4%
same,inhibition at 0.1 µM,eEF-2K(h); 100 nM,2%
same,inhibition at 1 µM,eEF-2K(h); 1000 nM,11%
same,inhibition at 0.01 µM,KDR(h); 10 nM,-2%
same,inhibition at 0.1 µM,KDR(h); 100 nM,1%
same,inhibition at 1 µM,KDR(h); 1000 nM,10%
same,inhibition at 0.01 µM,Fes(h); 10 nM,-8%
same,inhibition at 0.1 µM,Fes(h); 100 nM,36%
same,inhibition at 1 µM,Fes(h); 1000 nM,91%
same,inhibition at 0.01 µM,PrKX(h); 10 nM,8%
same,inhibition at 0.1 µM,PrKX(h); 100 nM,11%
same,inhibition at 1 µM,PrKX(h); 1000 nM,5%
same,inhibition at 0.01 µM,MAPK2(h); 10 nM,-5%
same,inhibition at 0.1 µM,MAPK2(h); 100 nM,-3%
same,inhibition at 1 µM,MAPK2(h); 1000 nM,3%
same,inhibition at 0.01 µM,ZAK(h); 10 nM,1%
same,inhibition at 0.1 µM,ZAK(h); 100 nM,-2%
same,inhibition at 1 µM,ZAK(h); 1000 nM,8%
same,inhibition at 0.01 µM,Rsk4(h); 10 nM,0%
same,inhibition at 0.1 µM,Rsk4(h); 100 nM,6%
same,inhibition at 1 µM,Rsk4(h); 1000 nM,19%
same,inhibition at 0.01 µM,Pyk2(h); 10 nM,2%
same,inhibition at 0.1 µM,Pyk2(h); 100 nM,24%
same,inhibition at 1 µM,Pyk2(h); 1000 nM,71%
